Test results as given in the supplement of paper PMC4858399.

Assays:
[1] = system: Caenorhabditis elegans N2; experiment: lowest effective concentration for larval growth inhibition (size below effect threshold); higher = less potent; conditions: exposure time 48 h
How it was run: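 Log-transformed well means of per-worm extinction, read as size on a Biosort, came from 50 C. elegans N2 L1 larvae per 96-well grown 48 h at 20°C in K-medium with killed bacteria, 1% DMSO and 0.5 to 200 µM chemical. The lowest effective concentration is the first dose at which the plate-adjusted mean size is below the threshold and stays below it at every higher dose. The threshold is 5.665.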

[2] = system: Caenorhabditis elegans N2; experiment: mean nematode size ln(EXT) after 48 h, plate-adjusted (DMSO control set to 6) (ln(EXT), control-adjusted); higher = larger nematodes / less growth inhibition; conditions: exposure time 48 h
How it was run: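 Synchronised C. elegans N2 L1 larvae were grown for 48 h at 20°C in K-medium containing killed OP50, 1% DMSO and 0.5–200 µM chemical, at 50 per well and 4–6 wells per treatment. The Biosort recorded extinction for each worm, and a growth model removed debris. Worm size was obtained by natural-logging these values and averaging them per well. For plate adjustment, the vehicle control mean was subtracted and 6 was added.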

Row | Structure (SMILES) | lowest effective concentration [1] [µM] | mean nematode size ln(EXT) (ln) ([2]; 0.5 µM) | mean nematode size ln(EXT) (ln) ([2]; 1 µM) | mean nematode size ln(EXT) (ln) ([2]; 5 µM) | mean nematode size ln(EXT) (ln) ([2]; 10 µM) | mean nematode size ln(EXT) (ln) ([2]; 50 µM) | mean nematode size ln(EXT) (ln) ([2]; 100 µM) | mean nematode size ln(EXT) (ln) ([2]; 200 µM)
1 | NCC1(Cc2noc(=O)[nH]2)CCCCC1 | > 200 | 5.77 | 5.69 | 5.76 | 5.73 | 5.69 | 5.72 | 5.7
2 | O=C(N[C@H]1CN2CCC1CC2)c1ccc2c(c1)OCCO2 | > 200 | 5.82 | 5.83 | 5.8 | 5.8 | 5.81 | 5.81 | 5.67
3 | O=C(O)c1ccc2c(c1)nc(C(=O)NC1CCN(C3CC3)CC1)n2Cc1cc(-c2ccc(Cl)s2)on1 | > 200 | 5.76 | 5.81 | 5.71 | 5.87 | 5.82 | 5.69 | 5.86
4 | OCC(CO)n1cnc(-c2ccc(F)cc2)c1-c1ccnc(Oc2ccccc2)n1 | > 200 | 6.02 | 5.98 | 5.97 | 6.03 | 6.04 | 5.98 | 5.82
5 | C1CC2OC2CC1C1CO1 (mixture of isomers) [Vinylcyclohexene dioxide, mixture of isomers] | > 200 | 5.91 | 5.97 | 5.93 | 5.74 | 5.93 | 5.91 | 5.7
6 | CC(C)CC(C)(O)C#CC(C)(O)CC(C)C (racemic) | > 200 | 5.77 | 5.77 | 5.78 | 5.78 | 5.64 | 5.75 | 5.81
7 | C[C@@]1(c2ccc(Oc3ccccc3)cc2)OC(=O)N(Nc2ccccc2)C1=O (racemic) [Famoxadone] | > 200 | 5.8 | 5.77 | 5.7 | 5.8 | 5.75 | 5.83 | 5.67
8 | CN(C)C(=O)NC1(c2ccccc2)CCN(CCCC2(c3ccc(Cl)c(Cl)c3)CCCN(C(=O)c3ccccc3)C2)CC1 (stereo in doubt) | 50 | 5.96 | 5.67 | 5.69 | 5.74 | 5.62 | 5.35 | 5.63
9 | Cc1ccc(C)c(C)c1 [1,2,4-Trimethylbenzene] | > 200 | 5.8 | 5.84 | 5.88 | 5.84 | 5.91 | 5.89 | 5.71
10 | Clc1ccccc1Cl [1,2-Dichlorobenzene] | > 200 | 5.95 | 5.9 | 5.9 | 6 | 6.02 | 6.04 | 5.68
11 | Cc1cccc([N+](=O)[O-])c1C [1,2-Dimethyl-3-nitrobenzene] | > 200 | 5.81 | 5.89 | 5.83 | 5.77 | 5.86 | 5.83 | 5.79
12 | Cc1ccc([N+](=O)[O-])cc1C [1,2-Dimethyl-4-nitrobenzene] | > 200 | 5.84 | 5.96 | 5.89 | 5.8 | 5.86 | 5.8 | 5.81
13 | Cc1cc(C)cc(C)c1 [1,3,5-Trimethylbenzene] | > 200 | 5.85 | 5.84 | 5.83 | 5.9 | 5.89 | 5.99 | 5.72
14 | Nc1cccc(N)c1 [1,3-Benzenediamine] | > 200 | 5.8 | 5.84 | 5.87 | 5.89 | 5.87 | 6 | 5.78
15 | C[C@H](O)CCO [1,3-Butanediol] | > 200 | 5.92 | 5.9 | 5.88 | 6.01 | 6 | 6.02 | 5.74
16 | OC(CCl)CCl [1,3-Dichloro-2-propanol] | > 200 | 5.88 | 5.83 | 5.8 | 5.82 | 5.8 | 5.48 | 5.88
17 | CC1(C)C(=O)N(Cl)C(=O)N1Cl [1,3-Dichloro-5,5-dimethylhydantoin] | > 200 | 5.81 | 5.79 | 5.79 | 5.82 | 5.83 | 5.8 | 5.67
18 | Clc1cccc(Cl)c1 [1,3-Dichlorobenzene] | > 200 | 5.9 | 5.89 | 5.87 | 5.96 | 5.99 | 5.99 | 5.79
19 | O=S1(=O)CCCO1 [1,3-Propane sultone] | > 200 | 5.83 | 5.87 | 5.85 | 5.78 | 5.84 | 5.91 | 5.76
20 | Nc1cccc2c(N)cccc12 [1,5-Diaminonaphthalene] | > 200 | 5.81 | 5.79 | 5.81 | 5.77 | 5.64 | 5.53 | 5.73
